Columns and labels:
sGLT1 [1] = test: Immunofluorescence staining of sGLT1 in Caco-2 cells; assay type: cell-based; settings: ANC 2.3 × 10^−4 mg/mL or FA-g-CS 9 × 10^−5 mg/mL, 48 h
Description: Immunofluorescence staining was carried out to further validate the effect of FA-g-CS/ANC on the expression of sGLT1 and GLUT2. In short, Caco-2 cells were transfected with NC siRNA (negative control), GLUT2-siRNA-2, and sGLT1-siRNA-3; then, they were seeded onto a 4-well slide and chamber (Watson, Kobe, Japan). Subsequently, cells were incubated with 0.09 µg/mL FA-g-CS, 0.23 µg/mL ANC, or their combination at 37 °C for 48 h. Then, they were fixed with 4% paraformaldehyde for 10 min and soaked with 0.5% Triton X-100 in PBS for 15 min. In this study, goat serum was used to avoid nonspecific binding at room temperature. After 30 min of treatments, the cells were incubated with the primary antibody ([…], Santa Cruz Biotechnology, with 1:100 dilutions) at 4 °C overnight, followed by incubation with the secondary antibody (goat anti-mouse IgG1-HRP, Santa Cruz Biotechnology, Shanghai, China, with 1:100 dilutions) for 1 h at 20–37 °C. Nuclear staining was performed with DAPI, and the images were captured with a fluorescence microscope (BX53, Olympus, Tokyo, Japan).

sGLT1 [2] = test: Western blot of sGLT1 expression in Caco-2 cells after siRNA transfection and incubation; assay type: cell-based
Description: Firstly, the cells were washed twice with 1 mL of cold PBS and then lysed in 100 μL of ice-cold RIPA lysis buffer. Western blot analysis was performed following the previous method with minor modifications. Briefly, total protein samples were resolved by SDS-PAGE (8%, 10%, or 12%) and transferred to PVDF membranes blocked with 5% nonfat milk powder in TBST; these were then incubated with 8 μg of primary antibody at a dilution of 1:1000/500 (v/v) overnight at 4 °C. Detection was performed with 10 mL of ECL and oxidizing reagent and equal amounts of HRP-conjugated anti-mouse at a 1:5000 (v/v) dilution rate. To further illustrate the effect of FA-g-CS on the transmembrane transport of ANC, the Caco-2 cells were transfected with siRNA targeted to sGLT1 and GLUT2 (the optimal interference fragments screened by previous tests) and then incubated with FA-g-CS, ANC, or their combinations. Finally, the expressions of sGLT1 and GLUT2 were detected using a Western blot assay.

[3] = ANC transmembrane transport across Caco-2 cell monolayer (Transwell, HPLC); assay type: in vitro ADME; settings: human, Caco-2
Description: (§1) In this work, we utilized and slightly modified a procedure from Zou et al. to perform ANC transport studies. Firstly, ANC commercial powder was pre-dissolved in ultra-pure water and phosphate-buffered solution (PBS, pH7.4) was used for FA-g-CS dissolving. Then, pre-warmed phosphate-buffered saline (PBS) was used to wash and equilibrate the Transwell. Subsequently, the transport buffer containing ANC was added to the basolateral (1.5 mL) or the apical (0.5 mL) side of the inserts, while the corresponding volume of transport buffer was added to the receiving container. Samples measuring 50 uL were taken after 1, 2, 3, and 4 h incubation, and the same amount of pre-warmed PBS was replenished immediately. The samples were treated with HCl and frozen until HPLC analysis. The ANC-absorption-enhancing studies with FA-g-CS across Caco-2 cells were conducted using a transport buffer containing FA-g-CS+ANC instead of ANC alone.
(§2) Transport efficiency (A→B (%)) was calculated according to the following formula: (concentrations of the compound at basolateral side overtime)/(concentrations of the compound at the apical side at zero hours) × 100. The apparent permeability coefficient (Papp) was defined as follows: Papp = (dQ/dt)(1/[AC0]); here, A represents the surface area of the Transwell, C0 represents the compound concentration added in the apical side, and the transport rate of the compound over time is denoted by dQ/dt.

Caco-2 cell monolayer = test: as above; assay type: in vitro ADME; settings: for Transport Efficiency A→B (%) with FA-g-CS Co-Treatment: with 5 × 10^−5 mg/mL FA-g-CS; for Concentrations of ANC at the Basolateral Side: apical ANC 0.05 ×10^−3 mg/mL
Description: as §1, §2

## OC[C@H]1O[C@@H](Oc2cc3c(O)cc(O)cc3[o+]c2-c2ccc(O)c(O)c2)[C@H](O)[C@@H](O)[C@@H]1O [ANC, Cyanidin-3-glucoside]
sGLT1 [1]
  protein level of sGLT1 (immunofluorescence) compared with the control cells: increased
sGLT1 [2]; cells treated with nonrelated and scrambled siRNA
  expression of sGLT1 compared with the blank: significantly elevated
sGLT1 [2]; cells treated with siRNA transfection
  expression level of sGLT1 compared with the blank control: significantly increased
sGLT1 [2]; siRNA-transfected Caco-2 cells incubated with compounds (abstract)
  increased sGLT1 expression: < 60%
[3]; ANC 0.05 ×10^−3 mg/mL, 4 h
  Papp A→B at 4 h, 0.05 ×10^−3 mg/mL: 4.91 ± 0.58 nm/s
  Papp B→A at 4 h, 0.05 ×10^−3 mg/mL: 3.78 ± 0.48 nm/s
[3]; ANC 0.05 ×10^−3 mg/mL, 4 h, read-out: Papp (B→A)/ Papp (A→B)
  efflux ratio at 4 h, 0.05 ×10^−3 mg/mL: 0.77
[3]; ANC 0.10 ×10^−3 mg/mL, 4 h
  Papp A→B at 4 h, 0.1 ×10^−3 mg/mL: 9.61 ± 0.48 nm/s
  Papp B→A at 4 h, 0.1 ×10^−3 mg/mL: 7.19 ± 0.98 nm/s
[3]; ANC 0.10 ×10^−3 mg/mL, 4 h, read-out: Papp (B→A)/ Papp (A→B)
  efflux ratio at 4 h, 0.1 ×10^−3 mg/mL: 0.75
[3]; ANC 0.15 ×10^−3 mg/mL, 4 h
  Papp A→B at 4 h, 0.15 ×10^−3 mg/mL: 15 ± 5.23 nm/s
  Papp B→A at 4 h, 0.15 ×10^−3 mg/mL: 19.4 ± 9.08 nm/s
[3]; ANC 0.15 ×10^−3 mg/mL, 4 h, read-out: Papp (B→A)/ Papp (A→B)
  efflux ratio at 4 h, 0.15 ×10^−3 mg/mL: 1.29
[3]; ANC 0.20 ×10^−3 mg/mL, 4 h
  Papp A→B at 4 h, 0.2 ×10^−3 mg/mL: 11.2 ± 1.08 nm/s
  Papp B→A at 4 h, 0.2 ×10^−3 mg/mL: 14.8 ± 0.48 nm/s
[3]; ANC 0.20 ×10^−3 mg/mL, 4 h, read-out: Papp (B→A)/ Papp (A→B)
  efflux ratio at 4 h, 0.2 ×10^−3 mg/mL: 1.32
[3]; ANC alone, overall statement
  Papp at 4 h: < 10 nm/s
Caco-2 cell monolayer; ANC 0.05 ×10^−3 mg/mL, 4 h
  Transport Efficiency A→B (%) with FA-g-CS Co-Treatment: 1%
  Transport Efficiency A→B (%) without FA-g-CS: 0.81%
Caco-2 cell monolayer; ANC 0.10 ×10^−3 mg/mL, 4 h
  Transport Efficiency A→B (%) with FA-g-CS Co-Treatment: 2.1%
  Transport Efficiency A→B (%) without FA-g-CS: 1.15%
Caco-2 cell monolayer; ANC 0.15 ×10^−3 mg/mL, 4 h
  Transport Efficiency A→B (%) with FA-g-CS Co-Treatment: 2.3%
  Transport Efficiency A→B (%) without FA-g-CS: 1.18%
Caco-2 cell monolayer; ANC 0.20 ×10^−3 mg/mL, 4 h
  Transport Efficiency A→B (%) with FA-g-CS Co-Treatment: 1.65%
  Transport Efficiency A→B (%) without FA-g-CS: 0.96%
Caco-2 cell monolayer; in presence of 0.05 × 10^−3 mg/mL FA-g-CS, 1 h
  Concentrations of ANC at the Basolateral Side: 0.0003 ± 0.00001 b ×10^−3 mg/mL
Caco-2 cell monolayer; in presence of 0.05 × 10^−3 mg/mL FA-g-CS, 2 h
  Concentrations of ANC at the Basolateral Side: 0.0004 ± 0.00001 c ×10^−3 mg/mL
Caco-2 cell monolayer; in presence of 0.05 × 10^−3 mg/mL FA-g-CS, 3 h
  Concentrations of ANC at the Basolateral Side: 0.0004 ± 0.00001 c ×10^−3 mg/mL
Caco-2 cell monolayer; in presence of 0.05 × 10^−3 mg/mL FA-g-CS, 4 h
  Concentrations of ANC at the Basolateral Side: 0.0005 ± 0.00001 d ×10^−3 mg/mL
Caco-2 cell monolayer; without FA-g-CS co-treatment, 1 h
  Concentrations of ANC at the Basolateral Side: 0.0001 ± 0.00001 a ×10^−3 mg/mL

From article PMC9601927 (Foods, 2022)
